The values that follow come from PubChem BioAssay AID328 (DTP/NCI, 2004).

Several values for one entry are separate records, joined by “and”; a condition that tells them apart may be missing. Identical values can stand only once. Inconclusive results and toxic doses are left out.

In the test the test system is BDF1 mice, P388 leukemia ip, median survival T/C. The test can be described thus: NCI In Vivo Anticancer Drug Screen. Data for tumor model P388 Leukemia (intraperitoneal) in B6D2F1 (BDF1) mice. The note with it: endpoint: median survival time, higher = longer survival. A digest of the protocol:
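Reported as T/C, where T is the survival measurement in dosed animals and C the same measurement in vehicle controls.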

[1] abbreviates: dose: 100.0 mg/kg/injection, schedule: Q01DX009 (ip), vehicle: Klucel (hydroxypropylcellulose) (HPC).
The mark [2] stands for this setting: dose: 200.0 mg/kg/injection, schedule: Q01DX009 (ip), vehicle: Klucel (hydroxypropylcellulose) (HPC).
Where [3] appears, read: dose: 400.0 mg/kg/injection, schedule: Q01DX009 (ip), vehicle: Klucel (hydroxypropylcellulose) (HPC).
Setting [4] is: dose: 100.0 mg/kg/injection, schedule: Q04DX003 (ip), vehicle: Klucel (hydroxypropylcellulose) (HPC).
Setting [5] is: dose: 200.0 mg/kg/injection, schedule: Q04DX003 (ip), vehicle: Klucel (hydroxypropylcellulose) (HPC).
The mark [6] stands for this setting: dose: 400.0 mg/kg/injection, schedule: Q04DX003 (ip), vehicle: Klucel (hydroxypropylcellulose) (HPC).

As to `Nc1ncn(C2OC(CO)C(O)C2O)c(=O)n1` (configuration not stated), the T/C is 91 % of control (dose: 0.16 mg/kg/injection, schedule: Q01DX009 (ip), vehicle: saline); 116 % of control (dose: 0.25 mg/kg/injection, schedule: Q01DX009 (ip), vehicle: saline); 150 % of control (dose: 0.38 mg/kg/injection, schedule: Q01DX009 (ip), vehicle: saline); 181 % of control (dose: 0.75 mg/kg/injection, schedule: Q01DX009 (ip), vehicle: saline); 210 % of control (dose: 0.9 mg/kg/injection, schedule: Q01DX009 (ip), vehicle: saline); 166 % of control (dose: 1.0 mg/kg/injection, schedule: Q01DX005 (ip), vehicle: saline). Moreover, the T/C runs as follows: (dose: 1.5 mg/kg/injection, schedule: Q01DX009 (ip), vehicle: saline) 195 % of control and 202 % of control; (dose: 1.9 mg/kg/injection, schedule: Q01DX009 (ip), vehicle: saline) 235 % of control; (dose: 2.0 mg/kg/injection, schedule: Q01DX005 (ip), vehicle: saline) 201 % of control; (dose: 2.2 mg/kg/injection, schedule: Q01DX009 (ip), vehicle: saline) 235 % of control and 236 % of control and 216 % of control; (dose: 3.0 mg/kg/injection, schedule: Q01DX009 (ip), vehicle: saline) 100 % of control; (dose: 3.3 mg/kg/injection, schedule: Q01DX009 (ip), vehicle: saline) 260 % of control and 275 % of control and 280 % of control. Besides, the T/C was 204 % of control (dose: 4.0 mg/kg/injection, schedule: Q01DX005 (ip), vehicle: saline); 172 % of control (dose: 4.25 mg/kg/injection, schedule: Q04DX003 (ip), vehicle: saline); 254 % of control and 336 % of control and 365 % of control (dose: 5.0 mg/kg/injection, schedule: Q01DX009 (ip), vehicle: saline); 207 % of control (dose: 5.0 mg/kg/injection, schedule: Q04DX004 (ip), vehicle: saline); 104 % of control (dose: 6.0 mg/kg/injection, schedule: Q01DX009 (ip), vehicle: saline); 220 % of control (dose: 6.48 mg/kg/injection, schedule: Q04DX003 (ip), vehicle: saline). Besides, the T/C is 216 % of control (dose: 7.0 mg/kg/injection, schedule: Q04DX004 (ip), vehicle: saline); 100 % of control (dose: 7.5 mg/kg/injection, schedule: Q01DX009 (ip), vehicle: saline); 90 % of control (dose: 8.5 mg/kg/injection, schedule: Q01DX009 (ip), vehicle: saline); 112 % of control and 219 % of control (dose: 10.0 mg/kg/injection, schedule: Q04DX004 (ip), vehicle: saline); 177 % of control (dose: 10.8 mg/kg/injection, schedule: Q04DX003 (ip), vehicle: saline); 248 % of control (dose: 11.0 mg/kg/injection, schedule: Q04DX004 (ip), vehicle: saline). Moreover, the T/C is 225 % of control (dose: 12.0 mg/kg/injection, schedule: Q04DX003 (ip), vehicle: saline); 226 % of control and 106 % of control (dose: 15.0 mg/kg/injection, schedule: Q04DX004 (ip), vehicle: saline); 272 % of control (dose: 16.0 mg/kg/injection, schedule: Q04DX004 (ip), vehicle: saline); 233 % of control (dose: 19.0 mg/kg/injection, schedule: Q04DX003 (ip), vehicle: saline); 165 % of control (dose: 20.0 mg/kg/injection, schedule: Q04DX004 (ip), vehicle: saline); 176 % of control (dose: 44.0 mg/kg/injection, schedule: Q01DX001 (ip), vehicle: saline). For the same compound, the T/C reads like this: (dose: 49.0 mg/kg/injection, schedule: Q01DX001 (ip), vehicle: saline) 170 % of control; (dose: 73.0 mg/kg/injection, schedule: Q01DX001 (ip), vehicle: saline) 176 % of control and 182 % of control; (dose: 110.0 mg/kg/injection, schedule: Q01DX001 (ip), vehicle: saline) 157 % of control and 190 % of control; (dose: 150.0 mg/kg/injection, schedule: Q01DX001 (ip), vehicle: saline) 120 % of control.

Take `O=C1c2ccccc2C(=O)C1(Cl)C(Cl)c1ccc([N+](=O)[O-])cc1` (configuration not stated): the T/C under setting [1] is 105 % of control, the T/C under setting [2] was 90 % of control and the T/C under setting [3] is 100 % of control.

As for `CCOc1ccc2nc(N)sc2c1`, the T/C reads like this: (dose: 25.0 mg/kg/injection, schedule: Q01DX009 (ip), vehicle: Klucel (hydroxypropylcellulose) (HPC)) 118 % of control; (dose: 50.0 mg/kg/injection, schedule: Q01DX009 (ip), vehicle: Klucel (hydroxypropylcellulose) (HPC)) 109 % of control; (dose: 100.0 mg/kg/injection, schedule: Q01DX001 (ip), vehicle: Klucel (hydroxypropylcellulose) (HPC)) 86 % of control; under setting [1], 104 % of control and 109 % of control; under setting [4], 104 % of control; (dose: 200.0 mg/kg/injection, schedule: Q01DX001 (ip), vehicle: Klucel (hydroxypropylcellulose) (HPC)) 100 % of control. Moreover, the T/C under setting [5] was 95 % of control and the T/C under setting [6] was 91 % of control.

For the compound `c1ccc2c(CNC3CCCCC3)c[nH]c2c1`, the T/C under setting [4] is 95 % of control, the T/C under setting [5] was 90 % of control and the T/C under setting [6] was 90 % of control.

Take `CC(C)(C)P(c1ccccc1)c1ccccc1`: the T/C (dose: 50.0 mg/kg/injection, schedule: Q04DX003 (ip), vehicle: saline with Tween-80) is 111 % of control; the T/C (dose: 100.0 mg/kg/injection, schedule: Q04DX003 (ip), vehicle: saline with Tween-80) was 107 % of control; the T/C (dose: 200.0 mg/kg/injection, schedule: Q04DX003 (ip), vehicle: saline with Tween-80) was 96 % of control.

On to `CC(NC1=NCCO1)c1cccc2ccccc12` (configuration not stated), for which the T/C runs as follows: (dose: 100.0 mg/kg/injection, schedule: Q01DX001 (ip), vehicle: saline with Tween-80) 91 % of control; (dose: 200.0 mg/kg/injection, schedule: Q01DX001 (ip), vehicle: saline with Tween-80) 91 % of control; (dose: 400.0 mg/kg/injection, schedule: Q01DX001 (ip), vehicle: saline with Tween-80) 91 % of control.

For `CCOC(=O)CNC(=O)N(CC)C12CC3CC(CC(C3)C1)C2`, the T/C was 94 % of control under setting [1]; 111 % of control (dose: 130.0 mg/kg/injection, schedule: Q01DX009 (ip), vehicle: Klucel (hydroxypropylcellulose) (HPC)); 100 % of control under setting [2]; 109 % of control (dose: 300.0 mg/kg/injection, schedule: Q01DX009 (ip), vehicle: Klucel (hydroxypropylcellulose) (HPC)); 122 % of control under setting [3].

Regarding `CC(=O)Nc1nc(C)c(CCC#N)c(=O)[nH]1`, the T/C runs as follows: (dose: 100.0 mg/kg/injection, schedule: Q04DX003 (ip), vehicle: saline) 86 % of control; (dose: 200.0 mg/kg/injection, schedule: Q04DX003 (ip), vehicle: saline) 90 % of control; (dose: 400.0 mg/kg/injection, schedule: Q04DX003 (ip), vehicle: saline) 86 % of control.

`CS(=O)CC(O)(c1cccs1)C1CC1` (configuration not stated): the T/C reads like this: (dose: 50.0 mg/kg/injection, schedule: Q01DX009 (ip), vehicle: saline with Tween-80) 103 % of control; (dose: 100.0 mg/kg/injection, schedule: Q01DX009 (ip), vehicle: saline with Tween-80) 117 % of control; (dose: 200.0 mg/kg/injection, schedule: Q01DX009 (ip), vehicle: saline with Tween-80) 98 % of control.

As for `CCN(CC)c1ccc(/C=C/c2ccncc2)cc1`, the T/C by setting is: under setting [4], 100 % of control; under setting [5], 100 % of control; under setting [6], 109 % of control.

On to `CC[C@@H](O)C[C@H]1CCC[C@@]2(C[C@@H]3OC(=O)/C=C/[C@@](C)(O)[C@@H](O)[C@H](C)[C@@H](O)[C@H](OC4CCC(N(C)C)C(C)O4)[C@@H](O)[C@](C)(O)CCCCC/C=C/[C@@H]4CC(C)(C)O[C@@]4(O)C[C@H](O2)[C@H]3C)O1` (some centres not stated), for which the T/C was 91 % of control (dose: 0.04 mg/kg/injection, schedule: Q04DX003 (ip), vehicle: saline); 95 % of control (dose: 0.06 mg/kg/injection, schedule: Q04DX003 (ip), vehicle: saline); 108 % of control (dose: 0.1 mg/kg/injection, schedule: Q04DX003 (ip), vehicle: saline); 100 % of control (dose: 7.5 micrograms/kg/injection, schedule: Q01DX009 (ip), vehicle: saline); 104 % of control (dose: 7.5 micrograms/kg/injection, schedule: Q04DX003 (ip), vehicle: saline); 109 % of control (dose: 15.0 micrograms/kg/injection, schedule: Q01DX009 (ip), vehicle: saline). For the same compound, the T/C reads like this: (dose: 15.0 micrograms/kg/injection, schedule: Q04DX003 (ip), vehicle: saline) 104 % of control; (dose: 30.0 micrograms/kg/injection, schedule: Q01DX009 (ip), vehicle: saline) 104 % of control; (dose: 30.0 micrograms/kg/injection, schedule: Q04DX003 (ip), vehicle: saline) 113 % of control.
